Literature values in patent US9399044B2, “Antimicrobial cationic polyamines” (International Business Machines Corporation, priority 2014, dated 2016).

tested on: mouse; conditions: commercially available compounds, source NIH

Going from CN(Cc1cnc2nc(N)nc(N)c2n1)c1ccc(C(=O)N[C@@H](CCC(=O)O)C(=O)O)cc1 [Methotrexate] to NNC(=O)c1ccncc1 [Isoniazid], the “Mouse Intravenous LD50” value rises from 65 mg/kg to 149 mg/kg (2.3-fold).

Compared with CN1CCCC1c1cccnc1 (centres unmarked) [Nicotine], CO[C@H]1/C=C/O[C@@]2(C)Oc3c(C)c(O)c4c(O)c(c(/C=N/N5CCN(C)CC5)c(O)c4c3C2=O)NC(=O)/C(C)=C\C=C\[C@H](C)[C@H](O)[C@@H](C)[C@@H](O)[C@@H](C)[C@H](OC(C)=O)[C@@H]1C [Rifampin] is 870-fold higher in “Mouse Intravenous LD50” value: 0.3 mg/kg for the first, 260 mg/kg for the second.

For CC[C@@H](CO)NCCN[C@@H](CC)CO [Ethambutol], the “Mouse Intravenous LD50” value is listed as 240 mg/kg.
